{
  "source": "patent US6538037B2",
  "about": "“Methods for preparation and use of 1α,24(S)-dihydroxyvitamin D2” (Bone Care International, Inc., priority 1991, dated 2003)",
  "key": {"PC-3": {"tested_on": "PC-3", "test": "Inhibition of cell proliferation, PC-3", "format": "cell-based, human", "conditions": "10^−11 M to 10^−7 M, 6-7 days", "description": "(§1) The cell lines, LNCAP and PC-3, which are derived from human prostate adenocarcinoma, are seeded in six-well tissue culture plates at a density of about 50,000 cells/plate. After the cells have attached and stabilized, about 2-3 days, the medium is replenished with medium containing vehicle or the active vitamin D analogue 1α,24-(OH)2D2, at concentrations from 10^−11 M to 10^−7 M. Medium containing test analogue or vehicle is replaced every three days. After 6-7 days, the medium is removed, the cells are rinsed, precipitated with cold 5% trichloroacetic acid, and washed with cold ethanol. The cells are solubilized with 0.2 N sodium hydroxide, and the amount of DNA determined by standard procedures."}, "LNCAP [1]": {"tested_on": "LNCAP", "test": "Inhibition of cell proliferation, LNCAP", "format": "cell-based, human", "conditions": "10^−11 M to 10^−7 M, 6-7 days", "description": "as §1"}, "[2]": {"tested_on": "advanced androgen-independent prostate cancer", "test": "Treatment of advanced androgen-independent prostate cancer, open-labeled study", "format": "in vivo, human", "conditions": "for progression of metastatic disease: after one and two years", "description": "Patients with advanced androgen-independent prostate cancer participate in an open- labeled study of 1α,24-(OH)2D2. […] On admission to the study, patients begin a course of therapy with oral 1α,24-(OH)2D2 lasting 26 weeks, while discontinuing any previous use of calcium supplements, vitamin D supplements, and vitamin D hormone replacement therapies. During treatment, the patients are monitored at regular intervals for: (1) hypercalcemia, hyperphosphatemia, hypercalciuria, hyperphosphaturia and other toxicity; (2) evidence of changes in the progression of metastatic disease; and (3) compliance with the prescribed test drug dosage.\nThe study is conducted in two phases. During the first phase, the maximal tolerated dosage (MTD) of daily oral 1α,24-(OH)2D2 is determined by administering progressively higher dosages to successive groups of patients. All doses are administered in the morning before breakfast. […] Subsequent groups of patients are treated with 50.0, 75.0 and 100.0 μg/day.\nDuring the second phase, patients are treated with 1α,24-(OH)2D2 for 24 months at 0.5 and 1.0 times the MTD."}, "LNCAP [3]": {"tested_on": "LNCAP", "test": "Cell differentiation, PSA production in LNCaP", "format": "cell-based, human", "conditions": "10^−11 M to 10^−7 M, 6-7 days", "description": "Using the techniques of Skowronski et al., 132 Endocrinology (1993) 1952-1960 and 136 Endocrinology (1995) 20-26, both of which are incorporated herein by reference, cells of the cell line, LNCaP, which is derived from a human metastatic prostate adenocarcinoma and known to express PSA, are seeded in six-well tissue culture plates at a density of about 50,000 cells/plate. After the cells have attached and stabilized, about 2-3 days, the medium is replenished with medium containing vehicle or the active vitamin D analogue, 1α,24-(OH)2D2, at concentrations from 10^−11 M to 10^−7 M. After 6-7 days, medium is removed and stored at −20° C. for prostate specific antigen (PSA) analysis.\nThe cells from parallel cultures are rinsed, precipitated, and the amount of DNA determined by standard procedures. PSA is measured by standard known methods."}, "[4]": {"tested_on": "1,25-(OH)2D3 receptor site", "conditions": "Ishizuka et al., Steroids 1981, 1982; cited from earlier work"}},
  "data": [
    {"smiles": "C=C1/C(=C\\C=C2/CCC[C@]3(C)[C@@H]([C@H](C)/C=C/C(C)(O)C(C)C)CC[C@@H]23)C[C@@H](O)C[C@@H]1O", "note": "(relative stereo) [1α,24-(OH)2D2, 5,6-cis-1α,24-dihydroxyvitamin D2]", "values": [
      {"measurement": "cell number (amount of DNA) versus control cultures", "setting": "PC-3", "value": "significantly fewer cells than the control cultures"},
      {"measurement": "cell number (amount of DNA) versus control cultures", "setting": "LNCAP [1]", "value": "significantly fewer cells than the control cultures"},
      {"measurement": "bone pain associated with metastatic disease", "setting": "[2]; MTD for at least six months", "value": "significantly diminished"},
      {"measurement": "maximum levels of circulating 1α,24-(OH)2D2", "setting": "[2]; at the highest dosages", "value": "above 100 pg/mL"},
      {"measurement": "circulating levels of 1α,25-(OH)2D3", "setting": "[2]; during treatment", "value": "suppressed, often to undetectable levels"},
      {"measurement": "progression of metastatic disease", "setting": "[2]; higher dosage (1.0 times the MTD)", "value": "stable disease and partial or complete remission in many patients"},
      {"measurement": "levels of circulating 1α,24-(OH)2D2 versus dosage", "setting": "[2]; in vivo", "value": "increase proportionately with the dosage administered"},
      {"measurement": "serum and urine calcium", "setting": "[2]; in vivo", "value": "elevated in a dose responsive manner"},
      {"measurement": "progression of metastatic disease", "setting": "[2]; lower dosage (0.5 times the MTD)", "value": "stable disease or partial remission in many patients"},
      {"measurement": "PSA expressed as mass of PSA/cell versus control cultures", "setting": "LNCAP [3]", "value": "significantly more PSA than control cultures"}
    ]},
    {"smiles": "C=C1/C(=C\\C=C2/CCC[C@]3(C)[C@@H]([C@H](C)CC[C@@H](O)C(C)C)CC[C@@H]23)C[C@@H](O)C[C@@H]1O", "note": "[1α,24(R)-(OH)2D3, 1α,24(R)-dihydroxyvitamin D3]", "values": [
      {"measurement": "binding to the 1,25-(OH)2D3 receptor site relative to 1,25-(OH)2D3", "setting": "[4]", "value": "more tightly than does 1,25-(OH)2D3 itself"}
    ]}
  ]
}
